For two molecules, Emax and EC50 results are on record in patent US8486969B2, “Therapeutic compounds” (Allergan, Inc., priority 2007, dated 2013).

Common to all, as to type: cell-based
The target in one test is T1, alpha2A receptor (Homo sapiens, UniProt P08913).
T1 construct: expressed in transfected cells; host or cells: NIH-3T3 cells
T1 sequence (P08913 1-465): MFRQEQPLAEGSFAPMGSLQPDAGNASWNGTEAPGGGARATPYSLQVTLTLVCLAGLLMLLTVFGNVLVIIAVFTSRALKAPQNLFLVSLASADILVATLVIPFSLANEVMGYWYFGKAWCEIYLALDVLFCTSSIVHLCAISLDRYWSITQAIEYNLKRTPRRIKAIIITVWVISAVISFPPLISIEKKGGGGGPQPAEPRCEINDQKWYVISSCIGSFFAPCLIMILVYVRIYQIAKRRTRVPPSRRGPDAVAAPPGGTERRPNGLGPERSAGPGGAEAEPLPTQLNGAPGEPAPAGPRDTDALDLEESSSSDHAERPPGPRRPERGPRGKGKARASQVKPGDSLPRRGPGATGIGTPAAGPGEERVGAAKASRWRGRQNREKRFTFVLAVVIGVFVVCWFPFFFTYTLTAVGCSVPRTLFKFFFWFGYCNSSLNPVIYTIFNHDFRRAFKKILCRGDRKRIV
As to the kind of experiment: RSAT assay (Receptor Selection and Amplification Technology), alpha2A. The note with it: read-out: Alpha 2A intrinsic activity (IA), in parentheses. As to the method:
(§1) Receptor Selection and Amplification Technology (RSAT) Assay
(§2) The RSAT assay measures a receptor-mediated loss of contact inhibition that results in selective proliferation of receptor-containing cells in a mixed population of confluent cells. The increase in cell number is assessed with an appropriate transfected marker gene such as β-galactosidase, the activity of which can be easily measured in a 96-well format. Receptors that activate the G protein, Gq, elicit this response. Alpha2 receptors, which normally couple to Gi, activate the RSAT response when coexpressed with a hybrid Gq protein that has a Gi receptor recognition domain, called Gq/i5.
(§3) NIH-3T3 cells are plated at a density of 2×10^6 cells in 15 cm dishes and maintained in Dulbecco's modified Eagle's medium supplemented with 10% calf serum. […] After washing with phosphate-buffered saline, β-galactosidase enzyme activity is determined by adding 200 μl of the chromogenic substrate (consisting of 3.5 mM o-nitrophenyl-β-D-galactopyranoside and 0.5% nonidet P-40 in phosphate buffered saline), incubating overnight at 30° C. and measuring optical density at 420 nm. The absorbance is a measure of enzyme activity, which depends on cell number and reflects a receptor-mediated cell proliferation. […]

For a further test, the target named is T2, alpha2B receptor (Homo sapiens, UniProt P18089).
T2 construct: expressed in transfected cells; host or cells: NIH-3T3 cells
T2 sequence (P18089 1-450): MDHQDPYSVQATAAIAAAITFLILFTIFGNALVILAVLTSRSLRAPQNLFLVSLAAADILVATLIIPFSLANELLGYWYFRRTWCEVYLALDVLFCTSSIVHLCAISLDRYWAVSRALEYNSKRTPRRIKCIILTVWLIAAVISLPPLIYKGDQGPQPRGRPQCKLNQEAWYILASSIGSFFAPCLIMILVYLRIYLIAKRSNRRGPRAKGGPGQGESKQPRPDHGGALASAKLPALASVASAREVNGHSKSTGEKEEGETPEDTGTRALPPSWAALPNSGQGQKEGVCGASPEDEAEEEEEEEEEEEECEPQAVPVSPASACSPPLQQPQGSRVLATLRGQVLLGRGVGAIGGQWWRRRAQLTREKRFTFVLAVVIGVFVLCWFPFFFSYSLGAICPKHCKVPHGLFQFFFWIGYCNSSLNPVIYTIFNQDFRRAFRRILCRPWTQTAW
As to the kind of experiment: RSAT assay (Receptor Selection and Amplification Technology), alpha2B. The note with it: for pEC50: RSAT, NIH-3T3 cells cotransfected with receptor and Gq/i5, ND = not determinable at concentrations less than 10 micromolar, read-out: Alpha 2B EC50; for Emax: maximal effect relative to standard full agonist brimonidine (UK14304), read-out: Alpha 2B intrinsic activity (IA), in parentheses. The protocol:
as §1, §2
NIH-3T3 cells are plated at a density of 2×10^6 cells in 15 cm dishes and maintained in Dulbecco's modified Eagle's medium supplemented with 10% calf serum. One day later, cells are cotransfected by calcium phosphate precipitation with mammalian expression plasmids encoding p-SV-β-galactosidase (5-10 μg), receptor (1-2 μg) and G protein (1-2 μg). 40 μg salmon sperm DNA may also be included in the transfection mixture. Fresh media is added on the following day and 1-2 days later, cells are harvested and frozen in 50 assay aliquots. Cells are thawed and 100 μl added to 100 μl aliquots of various concentrations of drugs in triplicate in 96-well dishes. Incubations continue 72-96 hr at 37° C. After washing with phosphate-buffered saline, β-galactosidase enzyme activity is determined by adding 200 μl of the chromogenic substrate (consisting of 3.5 mM o-nitrophenyl-β-D-galactopyranoside and 0.5% nonidet P-40 in phosphate buffered saline), incubating overnight at 30° C. and measuring optical density at 420 nm. The absorbance is a measure of enzyme activity, which depends on cell number and reflects a receptor-mediated cell proliferation. The efficacy or intrinsic activity is calculated as a ratio of the maximal effect of the drug to the maximal effect of a standard full agonist for each receptor subtype. Brimonidine, also called UK14304, the chemical structure of which is shown below, is used as the standard agonist for the alpha2A, alpha2B and alpha2C receptors. The EC50 is the concentration at which the drug effect is half of its maximal effect.
EC50 values are nanomolar. ND stands for “not determinable” at concentrations less than 10 micromolar. IA stands for “intrinsic activity.”

A further test deals with T3, alpha2C receptor (Homo sapiens, UniProt P18825).
T3 construct: expressed in transfected cells; host or cells: NIH-3T3 cells
T3 sequence (P18825 1-462): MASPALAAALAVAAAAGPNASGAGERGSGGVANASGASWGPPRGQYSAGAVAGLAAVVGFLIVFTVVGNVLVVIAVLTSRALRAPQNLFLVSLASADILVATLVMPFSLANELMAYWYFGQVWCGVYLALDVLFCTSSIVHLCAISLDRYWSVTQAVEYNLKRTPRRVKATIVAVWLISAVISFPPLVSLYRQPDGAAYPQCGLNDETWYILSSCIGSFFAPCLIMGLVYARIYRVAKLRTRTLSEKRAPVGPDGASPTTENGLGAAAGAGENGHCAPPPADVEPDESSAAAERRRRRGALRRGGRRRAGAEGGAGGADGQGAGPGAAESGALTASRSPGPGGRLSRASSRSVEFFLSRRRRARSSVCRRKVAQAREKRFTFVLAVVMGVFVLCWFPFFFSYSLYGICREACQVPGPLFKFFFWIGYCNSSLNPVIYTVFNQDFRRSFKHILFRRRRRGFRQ
As to the kind of experiment: RSAT assay (Receptor Selection and Amplification Technology), alpha2C. The note with it: maximal effect relative to standard full agonist brimonidine (UK14304); read-out: Alpha 2C intrinsic activity (IA), in parentheses. As to the method:
as §1, §2, §3

pEC50: −log10 of the molar value.

One may read the pEC50 as −log10 of the EC50, conventionally taken in molar units. On to `c1cnc2c(n1)CCCC2NC1=NCCO1` (centres unmarked), for which the figures for the Emax at alpha2A receptor, on alpha2B receptor and at alpha2C receptor were 16%, 86% and 27%, respectively. On alpha2B receptor, the negative logarithm of the EC50 (pEC50) was 6.57.

On to `c1cnc2c(c1)CCCC2NC1=NCCO1` (centres unmarked), for which the results for the Emax on alpha2A receptor, on alpha2B receptor and at alpha2C receptor were 3%, 67% and 22%, respectively. The negative logarithm of the EC50 (pEC50) on alpha2B receptor is 6.26.
